These results are taken from patent US10537570B2, “Use of pimobendan for the reduction of heart size and/or the delay of onset of clinical symptoms in patients with asymptomatic heart failure due to mitral valve disease” (priority 2016, dated 2020).

Series [1] deals with dogs with MMVD and echocardiographic and radiographic evidence of cardiomegaly. As to conditions: dog, in vivo.
Series [2] has the same test system. As to the kind of experiment: Blinded, placebo controlled study of 360 dogs (preliminary analysis of final results).
For series [3], the system named is dogs. As to conditions: two dogs; long-term (chronic) clinical therapy; Tissier R et al. 2005; cited from earlier work.
Series [4] relates to dogs suffering from asymptomatic (occult, preclinical) heart failure due to mitral valve disease (MVD). As to the kind of experiment: Interim analysis: pimobendan vs placebo in dogs with asymptomatic heart failure due to MVD. In kind it is in vivo.
Series [5] concerns dogs with asymptomatic mitral valve disease. As to conditions: after addition of pimobendan to ACE inhibitor treatment; Ouellet M et al. 2009; cited from earlier work.

As to `COc1ccc(-c2nc3ccc(C4=NNC(=O)CC4C)cc3[nH]2)cc1` (stereo not shown) [pimobendan, 4,5-dihydro-6-[2-(4-methoxyphenyl)-1H-benzimidazol-5-yl]-5-methyl-3(2H)-pyridazinone], the safety and tolerability result in series [1] was “safe and well tolerated”. The heart size entry in series [2] (compared to the placebo group, measured over the first 35 days of the study, P<0.0001) is given as “reduction in heart size”. Further, the “rate or type of potential adverse events” value in series [2] (pimobendan group vs placebo group) was “no difference between groups”. In addition, in series [2] (pimobendan group, 95% CI 856—NA, placebo group 766 days, P=0.0038), the “Median time to the primary endpoint” value turned out to be 1228 days. Also, the “Prolongation of the preclinical period” value in series [2] (vs placebo group) is recorded as “approximately 15 months”. For the same molecule, in series [2] (vs placebo group, P=0.012), the “Overall survival, as determined by All Cause Mortality” value is on record as “significantly longer”. Moreover, the adverse effects result in series [3] was “increased mitral valve regurgitation and myocardial hypertrophy”. Besides, the “extension of survival time (all-cause mortality) compared to placebo” value in series [4] (also printed as 5.6 months) is “approx. 168 days”. The “prolongation of time to the onset of clinical signs of congestive heart failure compared to placebo” value in series [4] (also printed as 12.0 months) is recorded as “approx. 359 days”. Besides, the “long-term changes in the severity of mitral regurgitation” value in series [5] is recorded as “failed to identify beneficial long-term changes”.
